According to patent US5565566A (Discovery Therapeutics, Inc., priority 1995, dated 1996):
Structures can show the parent of a compound that is named as a salt. Where two headings read alike, the source gives them in different places. Values belong to the compound of their own block, whether it stands above or below them.

What was measured:
A2 receptors [1] = target: T1, A2 receptors (Homo sapiens, UniProt P29274); test: antagonism of NECA-stimulated adenylate cyclase in human platelet membranes (A); type: biochemical
T1 construct: Human Platelet Membranes; from tissue; host or cells: human platelets (membranes)
T1 sequence (P29274 whole entry): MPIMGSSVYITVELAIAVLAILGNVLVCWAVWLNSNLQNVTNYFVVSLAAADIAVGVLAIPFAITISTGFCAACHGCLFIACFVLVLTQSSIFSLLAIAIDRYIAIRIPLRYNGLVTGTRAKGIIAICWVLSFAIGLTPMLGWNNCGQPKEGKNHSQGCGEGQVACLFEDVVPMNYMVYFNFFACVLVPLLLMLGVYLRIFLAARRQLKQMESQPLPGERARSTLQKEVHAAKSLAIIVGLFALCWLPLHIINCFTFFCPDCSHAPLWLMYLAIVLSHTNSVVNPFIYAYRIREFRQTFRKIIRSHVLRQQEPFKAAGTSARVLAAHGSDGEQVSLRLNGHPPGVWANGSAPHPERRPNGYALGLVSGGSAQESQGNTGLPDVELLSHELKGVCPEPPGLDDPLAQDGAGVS

A2 receptors [2] = target: T2, A2 receptors (Rattus norvegicus, UniProt P30543); test: antagonism of NECA-stimulated adenylate cyclase in rat PC12 membranes (B); type: biochemical
T2 construct: Rat PC12 Membranes; endogenous in cells; host or cells: PC12
T2 sequence (P30543 whole entry): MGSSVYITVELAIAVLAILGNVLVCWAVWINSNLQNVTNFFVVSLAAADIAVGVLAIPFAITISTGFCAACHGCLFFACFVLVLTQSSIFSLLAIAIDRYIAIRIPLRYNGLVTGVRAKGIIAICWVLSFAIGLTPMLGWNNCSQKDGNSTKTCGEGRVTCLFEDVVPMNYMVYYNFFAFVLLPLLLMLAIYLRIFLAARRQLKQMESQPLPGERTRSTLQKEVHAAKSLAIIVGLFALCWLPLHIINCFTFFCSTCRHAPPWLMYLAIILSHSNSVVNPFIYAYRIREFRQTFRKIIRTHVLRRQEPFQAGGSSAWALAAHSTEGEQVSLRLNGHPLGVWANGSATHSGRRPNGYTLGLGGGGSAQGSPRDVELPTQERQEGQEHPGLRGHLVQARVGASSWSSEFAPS

A1 receptors [3] = target: T3, A1 receptors (Rattus norvegicus, UniProt P25099); test: prevention of R-PIA-induced inhibition of adenylate cyclase in rat fat cell membranes (C); type: biochemical; set-up: from tissue
T3 sequence (P25099 1-326): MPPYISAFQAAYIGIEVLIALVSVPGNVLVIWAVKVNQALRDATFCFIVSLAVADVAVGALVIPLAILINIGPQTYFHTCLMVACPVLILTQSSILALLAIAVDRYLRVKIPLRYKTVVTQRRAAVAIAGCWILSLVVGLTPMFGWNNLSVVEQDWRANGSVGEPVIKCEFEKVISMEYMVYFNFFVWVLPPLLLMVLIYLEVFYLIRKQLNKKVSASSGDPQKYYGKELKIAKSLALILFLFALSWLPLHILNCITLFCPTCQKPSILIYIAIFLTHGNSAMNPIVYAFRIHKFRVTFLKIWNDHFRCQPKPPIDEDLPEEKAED
Experimental: (§1) For activity at A1 receptors, compounds were tested as inhibitors of the binding of N^6 -[…]-[3H]-Phenylisopropyladenosine in rat brain membranes and for their ability to prevent R-PIA-induced inhibition of adenylate cyclase in rat fat cell membranes.
(C) Rat Fat Cell Membranes

A1 receptors [4] = target: T3, A1 receptors; test: inhibition of binding of [3H]-phenylisopropyladenosine in rat brain membranes (D); set-up: Rat Brain Membranes; from tissue; host or cells: rat brain (membranes)
Experimental: as §1
(D) Rat Brain Membranes

[5] = target: T4, rat cortical A1 receptors (Rattus norvegicus, UniProt P25099); test: displacement of [3H]-CHA from rat cortical A1 receptors; type: binding
T4 construct: rat cortical membranes were the receptor source; from tissue; host or cells: rat cerebral cortex (male Sprague Dawley) membranes
T4 sequence (P25099 1-326): T3 sequence (P25099 1-326)
Experimental: Varying concentrations of test compounds were incubated with the appropriate radioligand and membrane source for 1 hr at room temperature.
Assays were terminated by filtration over Whatman GF/B filters that had been pre-soaked with 0.1% polyethyleneimine using a 24 port Brandell cell havester. The filters were washed three times with 3 ml of ice cold buffer and transfered to plastic scintillation vials to which 4 ml of Beckman Ready protein scintillation cocktail was added. The tubes were shaken and counted in a Beckman 3801 scintillation counter that converted cpm to dpm.
Data were analyzed by utilizing the Ligand, commercial computer program (Munson and Rodbard, 1980).
Male Sprague Dawley rats were killed by decapitation and the brains removed. The cerebral cortices were homogenized in 50 mm Tris; 2mm MgCl2 (pH 7.4), and centrifuged at 40,000×g for 10 minutes. […] The homogenate was centrifuged, washed once, resuspended to a protein concentration of 5-10 mg/ml and frozen at -70° C. until use.

[6] = (C) Rat Fat Cell Membranes, A1 Effects, read-out: KB vs PIA INHIBITION (Adenylate Cyclase)
[7] = (D) Rat Brain Membranes, A1 Effects, read-out: Ki vs [^3 H] PI (Binding)
[8] = [3H]-CHA, rat cortical A1 receptors, read-out: Rat Cortical Binding Constant Ki
[9] = (A) Human Platelet Membranes, A2 Effects
[10] = (B) Rat PC12 Membranes, A2 Effects

Kb (A2 receptors [1]; [9]): 23 µM
Kb (A2 receptors [2]; [10]): 40 µM
Ki [5, 8]: > 10 µM
Kb (A1 receptors [3]; [6]): 122 µM
Ki (A1 receptors [4]; [7]): > 100 µM
Compound: COc1cc(CCNc2ncnc3c2ncn3C)cc(OC)c1OC [compound 1002, N^6-2-(3,4,5-Trimethoxyphenyl) ethyl-9-MA]

Ki [5, 8]: > 100 µM
Compound: Cn1c(S(=O)(=O)O)nc2c(N[C@H]3C[C@H]4CC[C@@H]3C4)ncnc21 (relative stereo) [compound 1062, N^6-(endo-2-norbornyl)-8-sulfonate-9-MA sodium salt]

Ki [5, 8]: > 100 µM
Compound: Cn1cnc2c(Nc3cccs3)ncnc21 [compound 0987, N6 2-thienyl-9-MA]

Ki [5, 8]: 0.013 µM
Compound: Cn1c(Br)nc2c(N[C@H]3C[C@H]4CC[C@@H]3C4)ncnc21 (relative stereo) [compound 1003, N^6-(endo-2-norbornyl)-8-bromo-9-MA]

Ki [5, 8]: > 10 µM
Compound: Cn1cnc2c(NCCc3c[nH]c4ccccc34)ncnc21 [compound 0989, N^6-2-(3-ethylindole)-9-MA]

Ki [5, 8]: 0.015 µM
Compound: Cn1c(Cl)nc2c(N[C@H]3C[C@H]4CC[C@@H]3C4)ncnc21 (relative stereo) [compound 1061, N^6-(endo-2-norbornyl)-8-chloro-9-MA]

Kb (A2 receptors [1]; [9]): 170 µM
Kb (A2 receptors [2]; [10]): 120 µM
Ki [5, 8]: > 10 µM
Kb (A1 receptors [3]; [6]): > 300 µM
Ki (A1 receptors [4]; [7]): > 100 µM
Compound: Cn1cnc2c(NCCc3ccccc3)ncnc21 [compound 0990, N^6-2-(phenethyl)9-MA]

Ki [5, 8]: 0.87 µM
Compound: Cn1c(N)nc2c(N[C@H]3C[C@H]4CC[C@@H]3C4)ncnc21 (relative stereo) [compound 1005, N^6-(endo-2-norbornyl)-8-amino-9-MA]

Ki [5, 8]: > 10 µM
Compound: Cc1cc(Cl)ccc1Nc1ncnc2c1ncn2C [compound 0988, N6(4-chloro-2-methylphenyl)-9-MA]

Ki [5, 8]: > 100 µM
Compound: CCCC(Nc1ncnc2c1ncn2C)C(=O)O (centres unmarked) [compound 1004, N^6-1-carboxy-1-butyl-9-MA]

Ki [5, 8]: > 10 µM
Compound: Cn1c(C(=O)O)nc2c(N[C@H]3C[C@H]4CC[C@@H]3C4)ncnc21 (relative stereo) [compound 1006, N^6-(endo-2-norbornyl)-8-carboxy-9-MA Sodium Salt]

Ki [5, 8]: > 100 µM
Compound: C[C@H](Nc1ncnc2c1ncn2C)c1ccccc1 [compound 0985, N^6 -S-1-phenyl-1-ethyl-9-MA]

Ki [5, 8]: 1.9 µM
Compound: Cn1c(NC2CCCC2)nc2c(N[C@H]3C[C@H]4CC[C@@H]3C4)ncnc21 (relative stereo) [compound 1064, N^6-(endo-2-norbornyl)-8-cyclopentylamine-9-MA]

Ki [5, 8]: 0.49 µM
Compound: OCCOCn1cnc2c(N[C@H]3C[C@H]4CC[C@@H]3C4)ncnc21 (relative stereo) [compound 1059, N^6-(endo-2-norbornyl)-9-[(2-hydroxyethoxy)methyl]adenine]

Ki [5, 8]: ~10 µM
Compound: Cn1c(=O)[nH]c2c(N[C@H]3C[C@H]4CC[C@@H]3C4)ncnc21 (relative stereo) [compound 1001, N^6-(endo-2-norbornyl)-8-oxo-9-MA]

Ki [5, 8]: 1.12 µM
Compound: Cn1cnc2c(N[C@H]3C[C@H]4CC[C@@H]3C4)nc(O)nc21 (relative stereo) [compound 1063, N^6-(Endo-2-norbornyl)-2-oxo-9-MA]

Ki [5, 8]: 0.37 µM
Compound: Cn1c(S)nc2c(N[C@H]3C[C@H]4CC[C@@H]3C4)ncnc21 (relative stereo) [compound 1060, N^6-(endo-2-norbornyl)-8-thio-9-MA]

The remaining lines, values behind:

Compound: N^6 -Methylcyclopentyl-9-MA [N^6 -Methylcylopentyl-9-MA]
Kb (A2 receptors [1]; read-out: KB vs NECA Stimulation (Adenylate Cyclase), (A) Human Platelet Membranes, A2 Effects): 45 µM
Kb (A2 receptors [2]; read-out: KB vs NECA Stimulation (Adenylate Cyclase), (B) Rat PC12 Membranes, A2 Effects): 56 µM
Kb (A1 receptors [3]; [6]): 9 µM
Ki (A1 receptors [4]; [7]): 2.5 µM

Compound: CNc1ncnc2c1ncn2C [N^6 -Methyl-9-MA]
Kb (A2 receptors [1]): 150 µM
Kb (A2 receptors [2]): 130 µM
Kb (A1 receptors [3]): 220 µM
Ki (A1 receptors [4]): > 100 µM

Compound: C[C@@H](Nc1ncnc2c1ncn2C)c1ccccc1 [compound 0984, N^6 -R-1-phenyl-1-ethyl-9-MA]
Ki [5, 8]: > 10 µM

Compound: Cn1cnc2c(NC3CCCCC3)ncnc21 [N^6 -Cyclohexyl-9-MA]
Kb (A2 receptors [1]; [9]): 7.4 µM
Kb (A2 receptors [2]; [10]): 21 µM
Kb (A1 receptors [3]; [6]): 0.65 µM

Compound: C[C@@H](Cc1ccccc1)Nc1ncnc2c1ncn2C [compound 0986, N^6 -S-1-phenyl-2-propyl-9-MA]
Kb (A2 receptors [1]): 23 µM
Kb (A2 receptors [2]; [10]): 74 µM
Ki [5]: > 10 µM
Ki (A1 receptors [4]): 10 µM

Compound: Cn1c(C2CCCC2)nc2c(N[C@H]3C[C@H]4CC[C@@H]3C4)ncnc21 (relative stereo) [compound 0964, N^6-(endo-2-norbornyl)-8-cyclopentyl-9-MA]
Ki [5, 8]: 0.24 µM

Compound: Cn1cnc2c(NCCc3cccnc3)ncnc21 [N^6-2-(3-Pyridylethyl)-9-MA]
Kb (A2 receptors [1]; [9]): 92 µM
Kb (A2 receptors [2]; [10]): 117 µM
Kb (A1 receptors [3]; [6]): 96 µM
Ki (A1 receptors [4]; [7]): 41 µM

Compound: Cn1cnc2c(N[C@H]3C[C@H]4CC[C@@H]3C4)nc(Cl)nc21 (relative stereo) [compound 0913, N^6-(endo-2-norbornyl)-2-chloro-9-MA]
Ki [5, 8]: 0.105 µM

Compound: Cn1c(C2CCCC2)nc2c(NC3CCCC3)ncnc21 [compound 0965, N^6-cyclopentyl-8-cyclopentyl-9-MA]
Ki [5, 8]: 0.141 µM

Compound: Cn1cnc2c(N[C@@H]3C[C@H]4CC[C@@H]3C4)ncnc21 (relative stereo) [compound 0978, N^6-(exo-2-norbornyl)-9-MA]
Ki [5, 8]: 0.43 µM

Compound: Cn1cnc2c(Nc3ccccc3F)ncnc21 [N^6-2-Fluorophenyl-9-MA, N^6-2-Fluorophenyl-9-MA]
Kb (A2 receptors [1]; [9]): 11 µM
Kb (A2 receptors [2]; [10]): 29 µM
Kb (A1 receptors [3]; [6]): 17 µM
Ki (A1 receptors [4]; [7]): 8.5 µM

Compound: Cn1cnc2c(NCCc3ccsc3)ncnc21 [N^6-2-(3-Thienylethyl)-9-MA]
Kb (A2 receptors [1]; [9]): 14 µM
Kb (A2 receptors [2]; [10]): 25 µM
Kb (A1 receptors [3]; [6]): 24 µM
Ki (A1 receptors [4]; [7]): 20 µM

Compound: CN(C)CCNc1ncnc2c1ncn2C [compound 0983, N^6-(2,2-N-dimethylethyl)-9-MA]
Ki [5, 8]: > 10 µM

Compound: Cn1cnc2c(NCc3ccccc3)ncnc21 [N^6-2-Benzyl-9-MA, N^6 -Benzyl-9-MA]
Kb (A2 receptors [1]; [9]): 57 µM
Kb (A2 receptors [2]; [10]): 100 µM
Kb (A1 receptors [3]; [6]): 49 µM
Ki (A1 receptors [4]; [7]): 17 µM

Compound: Cn1cnc2c(Nc3ccccc3)ncnc21 [N^6 Phenyl-9-MA, N^6 -Phenyl-9-MA]
Kb (A2 receptors [1]; [9]): 21 µM
Kb (A2 receptors [2]; [10]): 107 µM
Kb (A1 receptors [3]; [6]): 10 µM
Ki (A1 receptors [4]; [7]): 25 µM

Compound: Cn1cnc2c(N)ncnc21 [9-Methyladenine (9-MA), 9-Methyladenine, reference compound]
Kb (A2 receptors [2]): 24 µM
Kb (A1 receptors [3]): 112 µM
Ki (A1 receptors [4]): 106 µM

Compound: Cn1cnc2c(NC3CCC3)ncnc21 [N^6-cyclobutyl-0-MA, N^6 -Cyclobutyl-9-Methyl Adenine]
Kb (A2 receptors [1]; [9]): 5.5 µM
Kb (A2 receptors [2]; [10]): 23 µM
Kb (A1 receptors [3]; [6]): 0.89 µM
Ki (A1 receptors [4]; [7]): 1.2 µM

Compound: Cn1cnc2c(NCCc3ccccc3Cl)ncnc21 [compound 0967, N^6-2(2-chlorophenylethyl)9-MA]
Ki [5, 8]: > 10 µM

Compound: Cn1cnc2c(NCCN)ncnc21 [compound 0982, N^6-2-Aminoethyl-9-MA]
Ki [5, 8]: > 10 µM

Compound: C[C@H](Cc1ccccc1)Nc1ncnc2c1ncn2C [N^6 R-1-Phenyl-2-propyl-9-MA, N^6 -R-1-Phenyl-2-propyl-9-MA]
Kb (A2 receptors [1]; [9]): 13 µM
Kb (A2 receptors [2]; [10]): 25 µM
Kb (A1 receptors [3]): 7.2 µM
Ki (A1 receptors [4]): 2.5 µM

Compound: Cn1cnc2c(NCC(c3ccccc3)c3ccccc3)ncnc21 [compound 0966, N^6-2,2-diphenylethyl-9-MA]
Ki [5, 8]: > 10 µM
